Reference: PMC12867150, “A fungi-derived cyclic peptide enhances Th9-mediated antitumor immunity by targeting ZAP70 and SREBP1” (The Journal of Clinical Investigation, 2025)
Values joined by “and” are separate entries in the source; they are usually repeats but may differ in a detail not shown here. Equal entries are not always repeated.

Columns and labels:
endogenous CD4+ T cells = experiment: Cytokines and granzyme B/perforin in endogenous CD4+ T cells (Figure 3I, S4G-I); format: in vivo, mouse; set-up: TNF-α expression / IFN-γ expression / Expression of IFN-g of endogenous CD4⁺ T cells in tumor / Expression of TNF-α of endogenous CD4⁺ T cells in tumor: unit not given here; conditions: for Expression of IFN-g of endogenous CD4⁺ T cells in tumor: Supplemental Figure 4G; for Expression of TNF-α of endogenous CD4⁺ T cells in tumor: Supplemental Figure 4H; for Expression of GzmB+Perforin+ of endogenous CD4⁺ T cells in tumor: Supplemental Figure 4I
Experimental: C57BL/6 mice were subcutaneously injected with 5 × 10^5 B16-OVA melanoma cells. Five days after tumor implantation, mice received an intravenous infusion of 2 × 10^6 in vitro–differentiated Th9 cells (cultured for 5 days), which were derived from OT-II CD45.1 donor mice, accompanied by 4 × 10^5 OVA peptide–pulsed DCs via the tail vein. To enhance T cell engraftment and facilitate lymphodepletion, a single intraperitoneal injection of cyclophosphamide (200 mg/kg, Sigma, catalog C0768) was administered 1 day prior to T cell transfer. Mice were euthanized at designated time points for the collection and analysis of spleens, tumor-draining lymph nodes, and tumor tissues.
Details regarding staining panels (human and mouse), reagents (including clones and catalog numbers), acquisition settings, compensation/controls, and analysis procedures are provided in Supplemental Methods.
BioLegend, Cat. No. 422301 or Mouse TruStain FcX™, BioLegend, Cat. No. 101319) for 10 minutes at 4°C. For surface marker detection, cells were stained with fluorochrome-conjugated monoclonal antibodies in 96-well V-bottom plates and incubated on ice for 30 minutes. After staining, cells were washed twice and resuspended in FACS buffer for analysis.
Prior to intracellular cytokine staining, cells were restimulated for 4 hours with PMA (Absin, Cat. No. abs9107), ionomycin (Sigma-Aldrich, Cat. No. I0634), and brefeldin A (MedChemExpress, Cat. No. HY-16592). For intracellular cytokine staining, cells were first surface-stained as described above, then fixed and permeabilized using the BD Cytofix/Cytoperm™ kit (BD Biosciences, Cat. No. 554714) according to the manufacturer ’s protocol. Intracellular proteins were stained with directly conjugated antibodies targeting IL-9, IL-17a, IL-4, IFN-γ, TNF-α, FOXP3, p-ZAP70, Perforin, and […]
Antibodies used for mouse samples included those against IL-9 (PE, clone RM9A4, Biolegend, Cat. No. 514104), IFN-γ (PE, clone XMG1.2, Biolegend, Cat. No.
Cat. No. 103138), CD4 (APC/Cy7, clone E-AB-F1353UJ, Elabscience, Cat. No.
AF18028), CD8α (PerCP/Cy5.5, clone E-AB-F1104UJ, Elabscience, Cat. No. […]
clone E-AB-F1187UH, Elabscience, Cat. No. AF19854), TNF-α (BV421, clone MP6-XT22, Biolegend, Cat. No. 506328), FOXP3 (PE, clone FJK-16s, eBioscience, Cat. No.
Perforin (APC, clone S16009A, Biolegend, Cat. No. 154303) and Granzyme B (APC, clone QA16A02, Biolegend, Cat. No. 372203). For human samples, antibodies against CD4 (PerCP/Cy5.5, clone RPA-T4, Biolegend, Cat. No. 300530; APC/Cy7, clone OKT4, Biolegend, Cat. No. 317418), CD19 (APC/Cy7, clone SJ25C1, Biolegend, Cat.
No. 363009), IFN-γ (PE, clone 4S.B3, Biolegend, Cat. No. 502509), IL-9 (PE, clone

[1] = system: mitochondria of human Th9 CAR T cells; experiment: MitoTracker of human Th9 CAR T cells (S9G); format: cell-based; conditions: for mitochondrial mass using Mito Tracker in human Th9 CAR-T cells: flow cytometry, Supplemental Figure 9G
Experimental: Mitochondrial mass and membrane potential were assessed using MitoTracker™ Deep Red FM (Thermo Fisher Scientific, catalog M22426) and TMRM (tetramethylrhodamine methyl ester; Macklin, catalog T868125), respectively, following the manufacturers’ protocols. Cells were incubated with the respective dyes, washed, and subjected to flow cytometry or fluorescence microscopy analysis. For ultrastructural assessment, mitochondrial number and diameter were quantified from high-resolution transmission electron microscopy (TEM) images using ImageJ software. […]
(C) Flow-cytometric analysis of infection efficiency in Th9 cells transduced with a
CD19-directed CAR lentivirus. […]
(G) Flow-cytometric analysis of mitochondrial mass using Mito Tracker in human
Th9 CAR-T c e l l s (n = 3). […]
(H) and quantification (I) (n = 5 mice per group). Statistical analysis was performed
using one-way ANOVA with Tukey’s post hoc test (A and B), or two-tailed unpaired
Student’s t-test (E–G, and I). Repeated data are presented as mean ± SEM. *p < 0.05,
(also on this page, place not known: TP cells ANOV A 30IL-9+ cells (%) Fato Fato Fato Fato A SSC GzmB CtrlEpA MFIofMitoTracker (×102) GF NormalizedATPlevel CtrlEpA 4MFI of Mito Tracker (×105) CtrlEpA0 GzmB+ cells (%) CD4 10 20 IL-9+ cells (%) Day60 10 20 30 Ctrl)

[2] = system: Th9 signature genes (Irf4, Batf3, Batf, and Il9); experiment: Quantitative RT-PCR of Th9 signature genes (Figure 1J); format: cell-based, mouse
Experimental: Total RNA was extracted from T cells using RNAex Pro Reagent (AG, catalog AG21102) following the manufacturer’s instructions. First-strand complementary DNA (cDNA) was synthesized using the Hifair III 1st Strand cDNA Synthesis SuperMix (YEASEN, catalog 11137ES10). Quantitative real-time PCR (qRT-PCR) was conducted on a QuantStudio 3 Real-Time PCR System (Thermo Fisher Scientific) using ChamQ Universal SYBR qPCR Master Mix (Vazyme, catalog Q711-02) and gene-specific primers (Tsingke Biotech).
For normalization, mouse samples were referenced to Gapdh or Actb, and human samples were normalized to GAPDH. Relative gene expression was calculated using the ΔΔCt method. Primer sequences are listed in Supplemental Table 5.

[3] = endogenous CD4+, spleen, individual mice, n = 4
[4] = EpA-treated Th9, ΔΔCt, individual replicates, n = 3

anteiso-C15 Leu7 surfactin [EpA] was tested, and the “GzmB+ PRF1+ gate number” value (endogenous CD4+ T cells; CD4+ T cells in tumors, representative flow plot, Figure S4I) was 5.26, the “GzmB and Perforin expression” value (endogenous CD4+ T cells; [3]) was 8.38 and 8.7 and 5.23 and 4.52 and the IFN-γ expression (endogenous CD4+ T cells; [3]) was 10.3 and 15 and 14.6 and 10.5. For the same substance, the TNF-α expression (endogenous CD4+ T cells; [3]) was 13.3 and 10.2 and 13.4 and 20.6, the “TNF-α expression of CD4+ T cells” value (endogenous CD4+ T cells; spleen, result in words) was “remained unchanged” and the “granzyme B+ perforin+ CD4+ T cells” value (endogenous CD4+ T cells; spleen, result in words) was “pronounced increase”. The “Expression of IFN-g of endogenous CD4⁺ T cells in tumor” value (“Expression of IFN-g … in tumor” below) (endogenous CD4+ T cells; replicate 1) was 193, the “Expression of IFN-g … in tumor” value (endogenous CD4+ T cells; replicate 2) was 141 and the “Expression of IFN-g … in tumor” value (endogenous CD4+ T cells; replicate 3) was 342. For the same substance, the “Expression of IFN-g … in tumor” value (endogenous CD4+ T cells; replicate 4) was 291, the “Expression of TNF-α of endogenous CD4⁺ T cells in tumor” value (from here on “Expression of TNF-α … in tumor”) (endogenous CD4+ T cells; replicate 1) was 483 and the “Expression of TNF-α … in tumor” value (endogenous CD4+ T cells; replicate 2) was 294. The “Expression of TNF-α … in tumor” value (endogenous CD4+ T cells; replicate 3) was 665, the “Expression of TNF-α … in tumor” value (endogenous CD4+ T cells; replicate 4) was 542 and the “Expression of GzmB+Perforin+ of endogenous CD4⁺ T cells in tumor” value (shortened to “Expression of GzmB+Perforin+ … in tumor”) (endogenous CD4+ T cells; replicate 1) was 5.25. The “Expression of GzmB+Perforin+ … in tumor” value (endogenous CD4+ T cells; replicate 2) was 5.18, the “Expression of GzmB+Perforin+ … in tumor” value (endogenous CD4+ T cells; replicate 3) was 5.26 and the “Expression of GzmB+Perforin+ … in tumor” value (endogenous CD4+ T cells; replicate 4) was 9.14. For the same substance, the “TNF-α expression of CD4+ T cells” value (endogenous CD4+ T cells; tumors, result in words) was “upregulated TNF-α expression”, the “mitochondrial mass using Mito Tracker in human Th9 CAR-T cells” value (“mitochondrial mass using Mito Tracker” for short) ([1]; replicate 1) was 3352 and the “mitochondrial mass using Mito Tracker” value ([1]; replicate 2) was 3381. The “mitochondrial mass using Mito Tracker” value ([1]; replicate 3) was 3457, the “mitochondrial potential, Th9 CAR T” value ([1]; result in words) was “elevated” and the “Batf3 relative mRNA expression” value [2, 4] was 1.532 and 2.109 and 2.3014. For the same substance, the “Batf relative mRNA expression” value [2, 4] was 1.713 and 1.736 and 1.548, the “Il9 relative mRNA expression” value [2, 4] was 23.4757 and 53.1262 and 48.3738 and the “Irf4 relative mRNA expression” value [2, 4] was 1.345 and 1.289 and 1.126. For the same substance, the “Th9-associated transcription factors and effector cytokines” value ([2]; result in words) was “significantly upregulated”.
